# From patent publication US12187706B2, “NLRP3 modulators” (INNATE TUMOR IMMUNITY, INC., priority 2019, dated 2025)
# pEC50: −log10 of the molar value.
# Target: T1, NLRP3 (Homo sapiens, UniProt Q96P20)
# T1 construct: host or cells: PMA-differentiated THP-1 cells
# Experiment: Measurement of IL-1β production in PMA-differentiated THP-1 cells (NLRP3 hIL1B)
# Type: cell-based
# Experimental: Measurement of IL-1β Production in PMA-Differentiated THP-1 Cells
# THP-1 cells were purchased from the American Type Culture Collection and sub-cultured according to instructions from the supplier. Prior to experiments, cells were cultured in RPMI 1640 containing 10% heat inactivated FBS, penicillin (100 units/ml) and streptomycin (100 μg/ml), and maintained in log phase prior to experimental setup. Prior to the experiment THP-1 were treated with PMA (Phorbol 12-myristate 13-acetate) (10 μg/ml) for 24 hours. The day of the experiment the media was removed and attaching cells were treated with trypsin for 2 minutes, cells were then collected, washed with PBS (phosphate buffer saline), spin down, resuspended in 2% heat inactivated FBS with RPMI at a concentration of 1×10^6 cells/ml, and 100 μl was plated in a 96 well plate. Compounds were dissolved in dimethyl sulfoxide (DMSO) and added to the culture medium to achieve desired concentration (e.g. 100, 30, 10, 3, 1, 0.3 or 0.1 μM). Cells were incubated with compounds for 4 hours. Cell free supernatant was collected and the production of IL-1β was evaluated by ELISA. A vehicle only control was run concurrently with each experiment. Final DMSO concentration was 1%.
# Measurement of IL-1β Production in PMA-Differentiated THP-1 Cells (Alternative Procedure)
# THP-1 cells were purchased from the American Type Culture Collection and sub-cultured according to instructions from the supplier. Prior to experiments, cells were cultured in RPMI 1640 containing 10% heat inactivated FBS, penicillin (100 units/ml), streptomycin (100 μg/ml), HEPES (10 mM) and sodium pyruvate (1 mM) and maintained in log phase prior to experimental setup. Prior to the experiment, THP-1 cells were treated with PMA (Phorbol 12-myristate 13-acetate) (20 μg/ml) overnight. The day of the experiment, the media was removed and attached cells were treated with trypsin for 2 minutes, cells were then collected, washed with PBS (phosphate buffer saline), pelleted by centrifugation and resuspended in 2% heat inactivated FBS with RPMI at a concentration of 50,000 cells/well in a 384 well plate. Cell free supernatant was collected and the production of IL-1β was evaluated by ELISA. Compounds were dissolved in dimethyl sulfoxide (DMSO) and added to the culture medium to achieve desired concentration (e.g. 100, 30, 10, 3, 1, 0.3 or 0.1 μM). Cells were incubated with compounds for 2 hours. A vehicle only control was run concurrently with each experiment. Final DMSO concentration was 1%.
# Measurement of IL-1β Production—hTRF Protocol (Second Alternative Procedure)
# Serial dilutions of compounds in DMSO were added to low volume 384 well plates at 100 nl/well using an ECHO 550 acoustic dispenser (Labcyte) to achieve final starting concentration of 10 μM in assay.
# THP-1 cells in RPMI (Gibco, 11875) media with 10% FBS at a density of 1×10^6 cell/ml in a T175 flask were treated with a final concentration of phorbol 12-myristate 13-acetate (PMA) (Sigma, P1585) of 50 ng/ml overnight at 37° C. at 5% CO2 for differentiation. Cells were harvested the next day after rinsing well with dPBS using 0.5% trypsin. A cell solution was prepared of 1×10^6 cells/ml for 50,000 cells in 50 μl/well in RPMI media with 2% FBS. Cells were plated using a multichannel pipette onto the compound dilutions in Greiner, 384 well, black clear bottom tissue culture treated plates (781090). The plates were incubated in 37° C. incubator at 5% CO2 for 2 hours.
# After the 2 hour incubation, the cell plates were spun in the centrifuge for 5 minutes at 1200 rpm. Using the Felix (CyBio), 8 μl of the supernatant was transferred to 384 well, low volume, white proxy plates. (Perkin Elmer, 6008230). A human IL1beta hTRF kit was used to analyze the supernatant (CISBIO, 62HIL1BPEG). The kit instructions were followed for preparing the IL1Beta standard curve and then the antibodies from the kit were diluted 1:40 rather than 1:20 as kit instructed.
# T1 sequence (Q96P20 whole entry): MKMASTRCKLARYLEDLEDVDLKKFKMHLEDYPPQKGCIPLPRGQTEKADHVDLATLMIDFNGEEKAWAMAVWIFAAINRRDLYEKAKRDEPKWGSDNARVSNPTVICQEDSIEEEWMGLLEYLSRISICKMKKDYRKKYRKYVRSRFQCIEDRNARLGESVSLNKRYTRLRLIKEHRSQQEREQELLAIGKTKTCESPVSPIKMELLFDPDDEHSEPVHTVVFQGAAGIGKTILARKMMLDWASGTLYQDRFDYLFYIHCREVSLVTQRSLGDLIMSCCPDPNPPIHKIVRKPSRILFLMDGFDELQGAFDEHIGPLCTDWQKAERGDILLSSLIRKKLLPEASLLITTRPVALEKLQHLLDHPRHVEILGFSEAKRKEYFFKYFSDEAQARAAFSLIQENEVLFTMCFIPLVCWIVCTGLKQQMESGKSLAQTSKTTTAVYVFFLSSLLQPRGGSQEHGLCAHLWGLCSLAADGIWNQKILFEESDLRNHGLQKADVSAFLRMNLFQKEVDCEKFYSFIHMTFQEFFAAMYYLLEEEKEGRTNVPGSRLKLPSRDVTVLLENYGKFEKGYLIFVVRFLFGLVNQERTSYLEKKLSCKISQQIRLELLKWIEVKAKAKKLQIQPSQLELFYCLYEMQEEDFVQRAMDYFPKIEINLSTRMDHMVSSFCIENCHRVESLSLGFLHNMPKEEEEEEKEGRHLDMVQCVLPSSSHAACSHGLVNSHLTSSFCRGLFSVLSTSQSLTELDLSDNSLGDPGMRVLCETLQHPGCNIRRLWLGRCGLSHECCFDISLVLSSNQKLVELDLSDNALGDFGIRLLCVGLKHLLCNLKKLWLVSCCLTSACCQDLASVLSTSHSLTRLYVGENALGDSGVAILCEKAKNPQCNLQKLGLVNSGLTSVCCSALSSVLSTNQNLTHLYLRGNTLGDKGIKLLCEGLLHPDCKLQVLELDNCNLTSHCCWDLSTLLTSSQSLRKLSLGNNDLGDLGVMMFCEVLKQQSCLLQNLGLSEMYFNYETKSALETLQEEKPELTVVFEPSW
row,Compound,pEC50
1,"CC(CCO)Nc1nc(N)nc2cc(-c3ccn[nH]3)ccc12 (single isomer, unassigned) [Example 201, 3-((2-amino-7-(1H-pyrazol-5-yl)quinazolin-4-yl)amino)butan-1-ol]",7.15
2,"COC(CO)CNc1nc(N)nc2cc(-c3ccn[nH]3)ccc12 (single isomer, unassigned) [Example 202, 3-((2-amino-7-(1H-pyrazol-5-yl)quinazolin-4-yl)amino)-2-methoxypropan-1-ol]",6.06
3,"COC(CO)CNc1nc(N)nc2cc(-c3ccn[nH]3)ccc12 (single isomer, unassigned) [Example 203, 3-((2-amino-7-(1H-pyrazol-5-yl)quinazolin-4-yl)amino)-2-methoxypropan-1-ol]",6.35
4,"C[C@@H](O)CNc1nc(N)nc2cc(-c3ccn[nH]3)ccc12 [Example 1, (R)-1-((2-amino-7-(1H-pyrazol-5-yl)quinazolin-4-yl)amino)propan-2-ol]",6.35
5,"Nc1nc(NCCCO)c2c(F)cc(-c3ccn[nH]3)cc2n1 [Example 15, 3-((2-amino-5-fluoro-7-(1H-pyrazol-3-yl)quinazolin-4-yl)amino)propan-1-ol]",6.62
6,"Nc1nc(NCCCO)c2c(Cl)cc(-c3cc[nH]n3)cc2n1 [Example 18, 3-((2-amino-5-chloro-7-(1H-pyrazol-3-yl)quinazolin-4-yl)amino)propan-1-ol]",6.19
7,"Cc1cc(-c2cc[nH]n2)cc2nc(N)nc(NCCCO)c12 [Example 21, 3-((2-amino-5-methyl-7-(1H-pyrazol-3-yl)quinazolin-4-yl)amino)propan-1-ol]",6.19
8,Nc1nc(NCC(F)(F)c2ccccn2)c2ccc(-c3ccn[nH]3)cc2n1 [Example 26],6.92
9,Nc1nc(NCc2nc[nH]n2)c2ccc(-c3ccn[nH]3)cc2n1 [Example 32],6.19
10,Nc1nc(NC(CO)c2cc[nH]n2)c2ccc(-c3ccn[nH]3)cc2n1 (centres unmarked) [Example 33],5.27
11,Nc1nc(NC(CO)c2ncc[nH]2)c2ccc(-c3ccn[nH]3)cc2n1 (centres unmarked) [Example 34],5.12
12,Nc1nc(NCC2(O)CCOCC2)c2ccc(-c3ccn[nH]3)cc2n1 [Example 37],6.06
13,Nc1nc(NCC2(O)CCC2)c2ccc(-c3ccn[nH]3)cc2n1 [Example 38],6.49
14,Nc1nc(NCc2ncc[nH]2)c2ccc(-c3ccn[nH]3)cc2n1 [Example 39],5.88
15,CN(C)CC(O)CNc1nc(N)nc2cc(-c3ccn[nH]3)ccc12 (centres unmarked) [Example 40],5.65
16,Nc1nc(NCCO)c2ccc(-c3ccn[nH]3)cc2n1 [Example 45],6.35
17,Nc1nc(N[C@@H]2CC[C@@H](O)C2)c2ccc(-c3ccn[nH]3)cc2n1 [Example 46],6.68
18,Nc1nc(N[C@H]2CC[C@H](O)C2)c2ccc(-c3ccn[nH]3)cc2n1 [Example 47],6.26
19,Nc1nc(NCc2ccncn2)c2ccc(-c3ccn[nH]3)cc2n1 [Example 50],5.73
20,N#CCCNc1nc(N)nc2cc(-c3ccn[nH]3)ccc12 [Example 58],6.15
21,Nc1nc(N[C@H]2CC[C@@H](CO)C2)c2ccc(-c3ccn[nH]3)cc2n1 [Example 63],5.76
22,Nc1nc(N[C@H]2CCC[C@H]2O)c2ccc(-c3ccn[nH]3)cc2n1 [Example 66],6.13

# More lines, in order of rising pEC50, values ahead:
row,pEC50,Compound
1,4.71,Nc1nc(NC2CCS(=O)(=O)CC2)c2ccc(-c3ccn[nH]3)cc2n1 [Example 55]
2,5.01,"Nc1nc(NCCCO)c2c(-c3cc[nH]n3)cc(-c3cc[nH]n3)cc2n1 [Example 19, 3-((2-amino-5,7-di(1H-pyrazol-3-yl)quinazolin-4-yl)amino)propan-1-ol]"
3,5.03,"CN(C)c1cc(-c2cc[nH]n2)cc2nc(N)nc(NCCCO)c12 [Example 22, 3-((2-amino-5-(dimethylamino)-7-(1H-pyrazol-3-yl)quinazolin-4-yl)amino)propan-1-ol]"
4,5.16,"Nc1nc(NCCCO)c2cc(Cl)c(-c3ccn[nH]3)cc2n1 [Example 3, 3-((2-amino-6-chloro-7-(1H-pyrazol-5-yl)quinazolin-4-yl)amino)propan-1-ol]"
5,5.26,Nc1nc(NC(CO)c2nccs2)c2ccc(-c3ccn[nH]3)cc2n1 (centres unmarked) [Example 35]
6,5.35,"Cn1ncnc1COc1nc(N)nc2cc(-c3ccn[nH]3)ccc12 [Example 7, 4-((1-methyl-1H-1,2,4-triazol-5-yl)methoxy)-7-(1H-pyrazol-5-yl)quinazolin-2-amine]"
7,5.40,Nc1nc(N[C@H](CO)Cc2c[nH]cn2)c2ccc(-c3ccn[nH]3)cc2n1 [Example 54]
8,5.43,C[C@@H](O)[C@@H](CO)Nc1nc(N)nc2cc(-c3ccn[nH]3)ccc12 [Example 64]
9,5.46,Nc1nc(NCc2ccnnc2)c2ccc(-c3ccn[nH]3)cc2n1 [Example 60]
10,5.53,COc1ncc(CNc2nc(N)nc3cc(-c4ccn[nH]4)ccc23)cn1 [Example 48]
11,5.65,Nc1nc(N[C@H]2CCCC[C@H]2O)c2ccc(-c3ccn[nH]3)cc2n1 [Example 67]
12,5.67,Nc1nc(NCc2cc3n(n2)CCCO3)c2ccc(-c3ccn[nH]3)cc2n1 [Example 44]
13,5.77,"Nc1nc(NCCCO)c2cc(F)c(-c3ccn[nH]3)cc2n1 [Example 24, 3-((2-amino-6-fluoro-7-(1H-pyrazol-5-yl)quinazolin-4-yl)amino)propan-1-ol]"
14,5.87,Nc1nc(N[C@H]2COCC[C@@H]2O)c2ccc(-c3ccn[nH]3)cc2n1 [Example 53]
15,5.90,Nc1nc(NC(CO)c2cccnc2)c2ccc(-c3ccn[nH]3)cc2n1 (centres unmarked) [Example 62]
16,5.98,Nc1nc(NCC2CCC(=O)N2)c2ccc(-c3ccn[nH]3)cc2n1 (centres unmarked) [Example 43]

row,pEC50,Compound
1,6.10,Nc1nc(NCCn2cncn2)c2ccc(-c3ccn[nH]3)cc2n1 [Example 31]
2,6.11,Nc1nc(NCc2cnccn2)c2ccc(-c3ccn[nH]3)cc2n1 [Example 52]
3,6.12,Nc1nc(NCC(O)CC(F)(F)F)c2ccc(-c3ccn[nH]3)cc2n1 (centres unmarked) [Example 41]
4,6.15,C[C@H](O)CNc1nc(N)nc2cc(-c3ccn[nH]3)ccc12 [Example 36]
5,6.17,"Nc1nc(N[C@H]2CCOC2)c2ccc(-c3ccn[nH]3)cc2n1 [Example 23, (S)-7-(1H-pyrazol-5-yl)-N4-(tetrahydrofuran-3-yl)quinazoline-2,4-diamine]"
6,6.34,Nc1nc(NCc2cncnc2)c2ccc(-c3ccn[nH]3)cc2n1 [Example 49]
7,6.37,Nc1nc(NCc2cc[nH]n2)c2ccc(-c3ccn[nH]3)cc2n1 [Example 27]
8,6.41,CC(C)(O)CNc1nc(N)nc2cc(-c3ccn[nH]3)ccc12 [Example 29]
9,6.43,"Nc1nc(NCCCO)c2ccc(-c3ccn[nH]3)cc2n1 [Example 14, 3-((2-amino-7-(1H-pyrazol-3-yl)quinazolin-4-yl)amino)propan-1-ol]"
10,6.49,Nc1nc(NCc2ncccn2)c2ccc(-c3ccn[nH]3)cc2n1 [Example 51]
11,6.52,Nc1nc(N[C@@H]2CCC[C@@H]2O)c2ccc(-c3ccn[nH]3)cc2n1 [Example 30]
12,6.60,Nc1nc(NC2(CO)CC2)c2ccc(-c3ccn[nH]3)cc2n1 [Example 65]
13,6.62,Nc1nc(NCc2nccs2)c2ccc(-c3ccn[nH]3)cc2n1 [Example 28]
14,6.66,"Nc1nc(Nc2cc[nH]n2)c2ccc(-c3ccn[nH]3)cc2n1 [Example 2, N4-(1H-pyrazol-3-yl)-7-(1H-pyrazol-5-yl)quinazoline-2,4-diamine]"
15,6.66,Nc1nc(NCc2ncco2)c2ccc(-c3ccn[nH]3)cc2n1 [Example 61]
